Measured values: patent US11498928B2, “Macrocyclic spiroethers as Mcl-1 inhibitors” (ASCENTAGE PHARMA (SUZHOU) CO., LTD., priority 2019, dated 2022)

Legend:
NCI-H929 cells = assay: Cell viability assay (NCI-H929 cells), CCK-8; assay type: cell-based; settings: 5% FBS
How it was run: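 Viability of NCI-H929 cells was measured using the Cell Counting Kit-8. After 24 hrs of compound exposure, 10 μL of CCK-8 solution per well was incubated for 1-4 hours, and absorbance was read at 450 nm on a BioTek Synergy 1MF. Readings were normalized to vehicle (DMSO) cells, and IC50 values were derived by nonlinear regression in GraphPad Prism 6.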

OPM-2 cells = assay: Cell viability assay (OPM-2 cells), CCK-8; assay type: cell-based; settings: 5% FBS
How it was run: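 Viability read by CCK-8 absorbance (450 nm, 4 h reagent incubation) after 24 h compound exposure of 20000 OPM-2 cells per well at 37 °C. IC50 fitted by nonlinear regression on vehicle-normalized signal.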

[1] = biological target: T1, Mcl-1 protein (residues 171-323) (Homo sapiens, UniProt Q07820); assay: Inhibition of Mcl-1 by fluorescence polarization (FP) competitive binding assay with FAM-Bid tracer; settings: 2 nM FAM-Bid, 20 nM Mcl-1, 30 min
T1 construct: Tag-free Mcl-1 protein (residues 171-323) was used in the FP assay
T1 sequence (Q07820 171-323): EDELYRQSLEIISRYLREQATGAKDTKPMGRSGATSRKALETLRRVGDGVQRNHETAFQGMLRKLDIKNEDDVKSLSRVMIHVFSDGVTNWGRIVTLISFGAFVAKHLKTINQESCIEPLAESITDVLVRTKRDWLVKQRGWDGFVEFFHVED
How it was run: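 Ten-point compound titrations compete against 2 nM fluorescein-Bid for 20 nM Mcl-1 (171-323, untagged). Incubation 30 min RT in PBS buffer with BGG and Triton, 5% DMSO final. mP reduction fitted by sigmoidal nonlinear regression for IC50.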

Row | SMILES | IC50 (NCI-H929 cells; Homo sapiens, NCI-H929, 24 h) [nM] | IC50 (OPM-2 cells; Homo sapiens, OPM-2, 24 h) [nM] | IC50 [1] [nM] | IC50 (NCI-H929 cells; 24 h) [nM] | IC50 (OPM-2 cells; 24 h) [nM]
1 | CO[C@H]1C2CC(C2)[C@H](C)N(C)S(=O)(=O)NC(=O)c2ccc3c(c2)N(C[C@@H]2CC[C@H]21)C[C@@]1(CCCc2cc(Cl)ccc21)CO3 [Cpd. No. 28, (1S,12′S,16′S,16a′R,18a′R)-6-chloro-16′-methoxy-11′,12′-dimethyl-3,4,12′,13′,14′,15′,16′,16a′,17′,18′,18a′,19′-dodecahydro-1′H,2H,3′H,11′H-spiro[naphthalene-1,2′-[5,7]etheno[13,15]methanocyclobuta[i][1,4]oxazepino[3,4-f][1]thia[2,7,16]triazacyclohexadecin]-8′(9′H)-one 10′,10′-dioxide] | 1300 | 1500 | 14 |  | 
2 | C[C@@H]1[C@@H](C)S(=O)(=O)NC(=O)c2ccc3c(c2)N(C[C@@H]2CC[C@H]2[C@@H](OCc2nccn2C)C2=C[C@H]1C2)C[C@@]1(CCCc2c1ccc(Cl)c2F)CO3 [compound 63, (1S,11′R,12′S,13′R,16′R,16a′R,18a′R,E)-6-chloro-5-fluoro-11′,12′-dimethyl-16′-((1-methyl-1H-imidazol-2-yl)methoxy)-3,4,12′,13′,16′,16a′,17′,18′,18a′,19′-decahydro-1′H,2H,3′H, 11′H-spiro[naphthalene-1,2′-[5,7]etheno[13,15]methanocyclobuta[i][1,4]oxazepino[3,4-f][1]thia[2,7]diazacyclohexadecin]-8′(9′H)-one 10′,10′-dioxide] | 98 | 88 | 13 |  | 
3 | C[C@@H]1[C@@H](C)S(=O)(=O)NC(=O)c2ccc3c(c2)N(C[C@@H]2CC[C@H]2[C@@H](OCCN2CCS(=O)(=O)CC2)C2=C[C@H]1C2)C[C@@]1(CCCc2c1ccc(Cl)c2F)CO3 [compound 88, (1S,11′R,12′S,13′R,16′R,16a′R,18a′R,E)-6-chloro-16′-(2-(1,1-dioxidothiomorpholino)ethoxy)-5-fluoro-11′,12′-dimethyl-3,4,12′,13′,16′,16a′,17′,18′,18a′,19′-decahydro-1′H,2H,3′H,11′H-spiro[naphthalene-1,2′-[5,7]etheno[13,15]methanocyclobuta[i][1,4]oxazepino[3,4-f][1]thia[2,7]diazacyclohexadecin]-8′(9′H)-one 10′,10′-dioxide] | 40 | 118 | 13 |  | 
4 | CO[C@@H]1C2=CC(C2)C(C)(C)CS(=O)(=O)NC(=O)c2ccc3c(c2)N(C[C@@H]2CC[C@H]21)C[C@@]1(CCCc2cc(Cl)ccc21)CO3 (single isomer, unassigned) [Cpd. No. 6 (Isomer 1)] |  |  | 5.2 | 870 | 1300
5 | CC[C@@H]1CS(=O)(=O)NC(=O)c2ccc3c(c2)N(C[C@@H]2CC[C@H]2[C@@H](OC)C2=CC1C2)C[C@@]1(CCCc2cc(Cl)ccc21)CO3 (single isomer, unassigned) [Cpd. No. 9 (Isomer 1)] |  |  | 4.4 | 680 | 1170
6 | C[C@@H]1[C@@H](C)S(=O)(=O)NC(=O)c2ccc3c(c2)N(C[C@@H]2CC[C@H]2[C@@H](OCCN2CC4(CN(C)C4)C2)C2=C[C@H]1C2)C[C@@]1(CCCc2c1ccc(Cl)c2F)CO3 [compound 81, (1S,11′R,12′S,13′R,16′R,16a′R,18a′R,E)-6-chloro-5-fluoro-11′,12′-dimethyl-16′-(2-(6-methyl-2,6-diazaspiro[3.3]heptan-2-yl)ethoxy)-3,4,12′,13′,16′,16a′,17′,18′,18a′,19′-decahydro-1′H,2H,3′H, 11′H-spiro[naphthalene-1,2′-[5,7]etheno[13,15]methanocyclobuta[i][1,4]oxazepino[3,4-f][1]thia[2,7]diazacyclohexadecin]-8′(9′H)-one 10′,10′-dioxide] | 360 | 667 | 17 |  | 
